# Measured values reported in patent publication US20040024055A1, “Pharmaceutical composition containing the exract of saururus chinensis baill useful as an anticancer agent and a process for the preparation thereof” (priority 2000, published 2004).
# “And” between values parts separate entries of the source, which are not always exact repeats. Equal values may be shown once.
# Key:
# [1] = tested on: SK-Hep-1 liver cancer cell line; assay: MTT analysis, anticancer activity; assay type: cell-based, human; details: 48 hr
# [2] = tested on: PC-3 prostate cancer cell line; assay: MTT analysis, anticancer activity; assay type: cell-based, human; details: 48 hr
# Method: To be specific, SK-Hep-1 cell, which is liver cancer cell line, was added to 96-well microplate (Falcon, USA) with the concentration of 3×10^5 cells/ml by 100 μl per well. Each extracted and separated substance dissolved in DMSO was added to the well by 100 μl for the final concentration to be from 50 μg/ml to 0.0244 μg/ml, with 200 μl of final volume. Each cell was cultured for 48 hr in a culture medium of 37° C. and 5% CO2. After cultivation, 20 μl of phosphate buffer solution containing 5 mg/ml of MTT (3-[4,5-dimethylthiazol-2-yl]-2,5-diphenyltetrazoliumbromide, Sigma Co.) reagent was added to each well, and then cultured for 4 hr. After taking 100 μl of supernant from each culture medium, 100 μl of 0.04N hydrochloric acid-isopropanol was added. After letting alone overnight, absorbance was measured at 560 nm using automatic Eliza detector (Molecular Divices Corp., USA). Anticancer activity of each extracted and separated substance was calculated from the absorbance value by Equation 1 and was expressed in terms of cell.
# Average Existence Rate(%)=(Absorbance of Treated Group)/(Absorbance of Control Group)×100
# [3] = tested on: DU-145 prostate cancer cell line; assay: MTT analysis, anticancer activity; assay type: cell-based, human; details: 48 hr
# BT-20 = assay: MTT analysis, anticancer activity; assay type: cell-based, human; details: 48 hr
# BT-549 = assay: MTT analysis, anticancer activity; assay type: cell-based, human; details: MTT, 48 hr
# HS-578T = assay: MTT analysis, anticancer activity; assay type: cell-based, human; details: MTT, 48 hr
# MCF-7 = assay: MTT analysis, anticancer activity; assay type: cell-based, human; details: MTT, 48 hr
# SK-BR-3 = assay: MTT analysis, anticancer activity; assay type: cell-based, human; details: 48 hr
# T-47D = assay: MTT analysis, anticancer activity; assay type: cell-based, human; details: 48 hr
# HeLa = assay: MTT analysis, anticancer activity; assay type: cell-based, human; details: 48 hr
# ME-180 = assay: MTT analysis, anticancer activity; assay type: cell-based, human; details: MTT, 48 hr
# HT-29 = assay: MTT analysis, anticancer activity; assay type: cell-based, human; details: MTT, 48 hr
# LoVo = assay: MTT analysis, anticancer activity; assay type: cell-based, human; details: MTT, 48 hr
# SK-N-SH = assay: MTT analysis, anticancer activity; assay type: cell-based, human; details: 48 hr
# T98G = assay: MTT analysis, anticancer activity; assay type: cell-based, human; details: 48 hr
# HS-746T = assay: MTT analysis, anticancer activity; assay type: cell-based, human; details: MTT, 48 hr
# KATO-III = assay: MTT analysis, anticancer activity; assay type: cell-based, human; details: MTT, 48 hr
# A431 = assay: MTT analysis, anticancer activity; assay type: cell-based, human; details: 48 hr
# Hep-2 [4] = assay: MTT analysis, anticancer activity; assay type: cell-based, human; details: MTT, 48 hr
# HT1080 = assay: MTT analysis, anticancer activity; assay type: cell-based, human; details: 48 hr
# NCI-H69 = assay: MTT analysis, anticancer activity; assay type: cell-based, human; details: MTT, 48 hr
# SK-MEL-28 [5] = assay: MTT analysis, anticancer activity; assay type: cell-based, human; details: 48 hr
# SK-OV-3 = assay: MTT analysis, anticancer activity; assay type: cell-based, human; details: MTT, 48 hr
# HS683 = assay: MTT analysis, anticancer activity; assay type: cell-based, human; details: 48 hr
# 293 = assay: MTT analysis, cytotoxicity against normal cell line; assay type: cell-based, human; details: MTT, 48 hr
# 3T3-L1 = assay: as above; assay type: cell-based, mouse; details: MTT, 48 hr
# CHO = assay: as above; assay type: cell-based, Chinese hamster; details: MTT, 48 hr
# CPAE = assay: as above; assay type: cell-based, bovine; details: MTT, 48 hr
# HS27 = assay: as above; assay type: cell-based, human; details: MTT, 48 hr
# NIH-3T3 [6] = assay: as above; assay type: cell-based, mouse; details: MTT, 48 hr
# SK-Hep-1 [7] = assay: Adhesion of cancer cell to Matri-Gel; assay type: cell-based, human
# Method: (§1) After treating HNP-98701 on tissue culture plate coated with the matrices, cancer cell was attached thereupon. To be specific, 50 μl/ml of […], 2 μg/ml of laminin, 2 μg/ml of collagen and 2 μg/ml of gelatin were coated on the surface of 96-well microplate (Corning Co.) per well. After solidifying for 2 hr, HNP-98701 was added to each well and treated for 1 hr. […] After treating the substances for 1 hr, cancer cell was added to each cell, and it was cultured for 3 hr. […] After culturing these cell lines for 3 hr, they were centrifuged. After collecting biomass only, it was washed with distilled water or PBS buffer solution for three times. […] Then, absorbance was measured at 560-405 nm with automatic Eliza detector (Molecular […] Corp., USA). […] Each experiment was performed for three times repeatedly.
# NIH-3T3 [8] = assay: Adhesion of cell to Matri-Gel; assay type: cell-based, mouse
# Method: as §1
# Hep-2 [9] = assay: Adhesion of cancer cell to Laminin; assay type: cell-based, human
# Method: as §1
# SK-Hep-1 [10] = assay: Adhesion of cancer cell to Laminin; assay type: cell-based, human
# Method: as §1
# SK-MEL-28 [11] = assay: Adhesion of cancer cell to Laminin; assay type: cell-based, human
# Method: as §1
# NIH-3T3 [12] = assay: Adhesion of cell to Laminin; assay type: cell-based, mouse
# Method: as §1
# Hep-2 [13] = assay: Adhesion of cancer cell to Collagen; assay type: cell-based, human
# Method: as §1
# SK-Hep-1 [14] = assay: Adhesion of cancer cell to Collagen; assay type: cell-based, human
# Method: as §1
# SK-MEL-28 [15] = assay: Adhesion of cancer cell to Collagen; assay type: cell-based, human
# Method: as §1
# NIH-3T3 [16] = assay: Adhesion of cell to Collagen; assay type: cell-based, mouse
# Method: as §1
# Hep-2 [17] = assay: Adhesion of cancer cell to Gelatin; assay type: cell-based, human
# Method: as §1
# SK-Hep-1 [18] = assay: Adhesion of cancer cell to Gelatin; assay type: cell-based, human
# Method: as §1
# SK-MEL-28 [19] = assay: Adhesion of cancer cell to Gelatin; assay type: cell-based, human
# Method: as §1
# NIH-3T3 [20] = assay: Adhesion of cell to Gelatin; assay type: cell-based, mouse
# Method: as §1
smiles,measurement,setting,value
N.N.[Cl][Pt][Cl] [Cisplatin],IC50 SK-Hep-1,[1],5.4350 µg/mL and 4.2950 µg/mL
same,IC50 PC-3,[2],2.4867 µg/mL
same,IC50 DU-145,[3],3.0012 µg/mL
same,IC50 BT-20,BT-20,1.4578 µg/mL
same,IC50 BT-549,BT-549,1.2522 µg/mL
same,IC50 HS-578T,HS-578T,2.3317 µg/mL
same,IC50 MCF-7,MCF-7,2.9412 µg/mL
same,IC50 SK-BR-3,SK-BR-3,1.1748 µg/mL
same,IC50 T-47D,T-47D,2.0468 µg/mL
same,IC50 HeLa,HeLa,5.3358 µg/mL
same,IC50 ME-180,ME-180,0.9365 μg/ml
same,IC50 HT-29,HT-29,6.1224 µg/mL
same,IC50 LoVo,LoVo,0.7318 µg/mL
same,IC50 SK-N-SH,SK-N-SH,2.1178 µg/mL
same,IC50 T98G,T98G,7.9216 µg/mL
same,IC50 HS-746T,HS-746T,2.7680 µg/mL
same,IC50 KATO-III,KATO-III,2.2875 µg/mL
same,IC50 A431,A431,0.4240 µg/mL
same,IC50 Hep-2,Hep-2 [4],0.5518 µg/mL
same,IC50 HT1080,HT1080,2.9512 µg/mL
same,IC50 NCI-H69,NCI-H69,0.6382 µg/mL
same,IC50 SK-MEL-28,SK-MEL-28 [5],4.3157 µg/mL
same,IC50 SK-OV-3,SK-OV-3,5.3442 µg/mL
same,IC50 HS683,HS683,0.2490 µg/mL
same,IC50 293,293,1.1678 µg/mL
same,IC50 3T3-L1,3T3-L1,2.7096 µg/mL
same,IC50 CHO,CHO,2.8462 µg/mL
same,IC50 CPAE,CPAE,0.8252 µg/mL
same,IC50 HS27,HS27,1.7853 µg/mL
same,IC50 NIH-3T3,NIH-3T3 [6],1.9756 µg/mL
same,Adhesion SK-Hep-1 (%),SK-Hep-1 [7]; 0.5 μg/ml,96.41%
same,Adhesion SK-Hep-1 (%),SK-Hep-1 [7]; 5 μg/ml,105.27%
same,Adhesion SK-Hep-1 (%),SK-Hep-1 [7]; 50 μg/ml,108.26%
same,Adhesion NIH-3T3 (%),NIH-3T3 [8]; 0.5 μg/ml,105.67%
same,Adhesion NIH-3T3 (%),NIH-3T3 [8]; 5 μg/ml,102.40%
same,Adhesion NIH-3T3 (%),NIH-3T3 [8]; 50 μg/ml,101.06%
same,Adhesion Hep-2 (%),Hep-2 [9]; 0.5 μg/ml,102.63%
same,Adhesion Hep-2 (%),Hep-2 [9]; 5 μg/ml,101.25%
same,Adhesion Hep-2 (%),Hep-2 [9]; 50 μg/ml,95.87%
same,Adhesion SK-Hep-1 (%),SK-Hep-1 [10]; 0.5 μg/ml,95.65%
same,Adhesion SK-Hep-1 (%),SK-Hep-1 [10]; 5 μg/ml,93.53%
same,Adhesion SK-Hep-1 (%),SK-Hep-1 [10]; 50 μg/ml,88.74%
same,Adhesion SK-MEL-28 (%),SK-MEL-28 [11]; 0.5 μg/ml,110.19%
same,Adhesion SK-MEL-28 (%),SK-MEL-28 [11]; 5 μg/ml,105.36%
same,Adhesion SK-MEL-28 (%),SK-MEL-28 [11]; 50 μg/ml,101.16%
same,Adhesion NIH-3T3 (%),NIH-3T3 [12]; 0.5 μg/ml,93.86%
same,Adhesion NIH-3T3 (%),NIH-3T3 [12]; 5 μg/ml,94.94%
same,Adhesion NIH-3T3 (%),NIH-3T3 [12]; 50 μg/ml,92.45%
same,Adhesion Hep-2 (%),Hep-2 [13]; 0.5 μg/ml,92.23%
same,Adhesion Hep-2 (%),Hep-2 [13]; 5 μg/ml,89.35%
same,Adhesion Hep-2 (%),Hep-2 [13]; 50 μg/ml,82.83%
same,Adhesion SK-Hep-1 (%),SK-Hep-1 [14]; 0.5 μg/ml,104.22%
same,Adhesion SK-Hep-1 (%),SK-Hep-1 [14]; 5 μg/ml,104.57%
same,Adhesion SK-Hep-1 (%),SK-Hep-1 [14]; 50 μg/ml,95.90%
same,Adhesion SK-MEL-28 (%),SK-MEL-28 [15]; 0.5 μg/ml,98.46%
same,Adhesion SK-MEL-28 (%),SK-MEL-28 [15]; 5 μg/ml,106.83%
same,Adhesion SK-MEL-28 (%),SK-MEL-28 [15]; 50 μg/ml,117.62%
same,Adhesion NIH-3T3 (%),NIH-3T3 [16]; 0.5 μg/ml,112.51%
same,Adhesion NIH-3T3 (%),NIH-3T3 [16]; 5 μg/ml,108.91%
same,Adhesion NIH-3T3 (%),NIH-3T3 [16]; 50 μg/ml,98.94%
same,Adhesion Hep-2 (%),Hep-2 [17]; 0.5 μg/ml,97.20%
same,Adhesion Hep-2 (%),Hep-2 [17]; 5 μg/ml,100.13%
same,Adhesion Hep-2 (%),Hep-2 [17]; 50 μg/ml,91.07%
same,Adhesion SK-Hep-1 (%),SK-Hep-1 [18]; 0.5 μg/ml,79.16%
same,Adhesion SK-Hep-1 (%),SK-Hep-1 [18]; 5 μg/ml,74.84%
same,Adhesion SK-Hep-1 (%),SK-Hep-1 [18]; 50 μg/ml,61.25%
same,Adhesion SK-MEL-28 (%),SK-MEL-28 [19]; 0.5 μg/ml,92.48%
same,Adhesion SK-MEL-28 (%),SK-MEL-28 [19]; 5 μg/ml,91.13%
same,Adhesion SK-MEL-28 (%),SK-MEL-28 [19]; 50 μg/ml,86.40%
same,Adhesion NIH-3T3 (%),NIH-3T3 [20]; 0.5 μg/ml,111.43%
same,Adhesion NIH-3T3 (%),NIH-3T3 [20]; 5 μg/ml,110.48%
same,Adhesion NIH-3T3 (%),NIH-3T3 [20]; 50 μg/ml,100.10%
